Test [1] relates to Manduca sexta. Put plainly: Sterol distribution in experimental hornworms (capillary GC of gut-purged prepupae). The format is in vivo, tobacco hornworm (Manduca sexta). To be noted: fed at 50 ppm in diet; mean relative area % of GC, 4 hornworms, S.D. in parentheses. Here is the method: (§1) The recrystallized 29-fluorosterols are dissolved in dichloromethane and then coated onto the wheat germ to give a final concentration to 50 ppm (w/v) in the articifical diet. Controls receive either 50 ppm of stigmasterol or no additional sterols. The dose are varied in subsequent experiments. Twenty first instar tobacco hornworms larvae (Manduca sexta, seventh day after egg collection) are then placed on a 0.5-g slab of diet in a 1-oz dish; this is designated as Day 0 of feeding. Larvae were maintained at 65% relative humidity and 26° C. on a 17L/7D long day light regime. Diets are changed and larvae are weighed and staged daily. The mean survival, weight gain, and developmental periods of the experimental hornworms are shown relative to a group of twenty control larvae in FIG. 1.
Four gut-purged prepupae from each experiment are frozen and later are analyzed individually for sterol composition. Each hornworm is homogenized (1:1 chloroform-methanol), the lipids is saponified, and the non-saponifiable lipis are chromatographed to give the sterol fraction. Analysis by capillary GC (Durabon DB-5 or DB-1701) allowed resolution an accurate quantification of cholesterol, desmosterol, campesterol, stiosterol and fucosterol from test insects. The results, present in Table 1, illustrate the insect metabolism.

For test [2], the system named is Manduca sexta. Put plainly: Insecticide bioassay of 29-fluorophytosterols in tobacco hornworm larvae (artificial diet). Conditions: for LC50: Manduca sexta, po, 504 h, day 21, read-out: Dose for 50% reduction, survival (larvae, day 21) (LC50); for LC50 / Dose for 50% reduction, maximum larval weight (EC50) / Dose for 50% reduction, pupation (EC50): parts per million (w/v) in the final diet. The format is in vivo, tobacco hornworm (Manduca sexta). Here is the method: as §1
Inequality signs indicate that the effect indicated was beyond the range of doses tested and could not be reliably obtained by extrapolation of the log concentration vs. probit response plots. All values are reported as parts per million (w/v) in the final diet.

≈ marks a conversion by molar mass, not a printed value.

5 molecules from US4452793A, “29-Fluorophytosterol termiticides, compositions and methods of use therefor” (The Research Foundation of State University of New York, priority 1983, dated 1984) can be followed below.

With `CC(C)[C@@H](CCF)CC[C@@H](C)[C@H]1CC[C@H]2[C@@H]3CC=C4C[C@@H](O)CC[C@]4(C)[C@H]3CC[C@]12C` [29-fluoroclionosterol], in test [1], the “Relative percent sterol: campesterol” value is 9.5(1) %, the “Relative percent sterol: cholesterol” value is given as 82.5(2) %, the “Relative percent sterol: desmosterol” value was 2.0(2) % and the “Relative percent sterol: sitosterol” value is on record as 5.9(1) %.
In general, LC50 refers to the concentration that kills 50% of the test population. Consider `CC(C)/C(=C/CF)CC[C@@H](C)[C@H]1CC[C@H]2[C@@H]3CC=C4C[C@@H](O)CC[C@]4(C)[C@H]3CC[C@]12C` [29-fluorofucosterol], for which, in test [1], the “Relative percent sterol: campesterol” value is 10.0(2) %, the “Relative percent sterol: cholesterol” value is 82.2(2) %, the “Relative percent sterol: desmosterol” value is recorded as 1.0(1) % and the “Relative percent sterol: sitosterol” value is recorded as 5.8(2) %. Moreover, in test [2], the LC50 is 48 µg/mL (≈ 111 µM); the “Dose for 50% reduction, maximum larval weight (EC50)” value is 26 ppm; the “Dose for 50% reduction, pupation (EC50)” value worked out at 31 ppm.
For the molecule `CC(C)[C@H](/C=C/[C@@H](C)[C@H]1CC[C@H]2[C@@H]3CC=C4C[C@@H](O)CC[C@]4(C)[C@H]3CC[C@]12C)CCF` [29-fluoroporiferasterol], in test [1], the “Relative percent sterol: campesterol” value is 16.3(2) %, the “Relative percent sterol: cholesterol” value is reported as 65.6(8) %, the “Relative percent sterol: desmosterol” value is listed as 5.8(2) % and the “Relative percent sterol: sitosterol” value is reported as 12.3(5) %.
As for `CC(C)[C@H](CCF)CC[C@@H](C)[C@H]1CC[C@H]2[C@@H]3CC=C4C[C@@H](O)CC[C@]4(C)[C@H]3CC[C@]12C` [29-fluorositosterol], in test [1], the “Relative percent sterol: campesterol” value is given as 7.8(3) %, the “Relative percent sterol: cholesterol” value is on record as 82.4(8) %, the “Relative percent sterol: desmosterol” value is on record as 5.2(8) % and the “Relative percent sterol: sitosterol” value is listed as 4.6(4) %. Besides, in test [2], the LC50 is 300 µg/mL (≈ 693 µM); the “Dose for 50% reduction, maximum larval weight (EC50)” value was found to be 110 ppm; the “Dose for 50% reduction, pupation (EC50)” value is recorded as 150 ppm.
On to `CC(C)[C@@H](/C=C/[C@@H](C)[C@H]1CC[C@H]2[C@@H]3CC=C4C[C@@H](O)CC[C@]4(C)[C@H]3CC[C@]12C)CCF` [29-fluorostigmasterol], for which, in test [2], the median lethal concentration (LC50) is 4 µg/mL (≈ 9.29 µM); the “Dose for 50% reduction, maximum larval weight (EC50)” value was 1 ppm; the “Dose for 50% reduction, pupation (EC50)” value is on record as 1 ppm. The “Survivors present for analysis” value in test [2] (hornworms fed at 50 ppm) is listed as “No survivors”.
